Laboratory results reported in ChEMBL document CHEMBL1201862, “PubChem BioAssay data set” (2004).
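Cells were grown in 96-well plates and exposed to each compound for 48 hours at five concentrations; endpoints were interpolated linearly between bracketing concentrations, or set to the highest concentration if not reached. At the GI50, growth is halved.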 Activity calls are given as the source filed them. No stated cut-off is given here; in the data, active = GI50 up to about 1.1 µM and inactive = higher.

Key:
Assay in all cases: growth of human tumour cells (NCI), 48 h
786-0 = system: 786-0
A498 = system: A498
A549 = system: A549
ACHN = system: ACHN
CAKI-1 = system: CAKI-1
CCRF-CEM = system: CCRF-CEM
COLO 205 = system: COLO 205
DLD-1 = system: DLD-1
DMS-114 = system: DMS-114
DMS-273 = system: DMS-273
EKVX = system: EKVX
HCC 2998 = system: HCC 2998
HCT-116 = system: HCT-116
HOP-18 = system: HOP-18
HOP-92 = system: HOP-92
HT-29 = system: HT-29
IGROV-1 = system: IGROV-1
K562 = system: K562
KM12 = system: KM12
LXFL 529 = system: LXFL 529
M19-MEL = system: M19-MEL
MOLT-4 = system: MOLT-4
Malme-3M = system: Malme-3M
NCI-H226 = system: NCI-H226
NCI-H23 = system: NCI-H23
NCI-H460 = system: NCI-H460
NCI-H522 = system: NCI-H522
OVCAR-3 = system: OVCAR-3
OVCAR-5 = system: OVCAR-5
OVCAR-8 = system: OVCAR-8
RPMI-8226 = system: RPMI-8226
RXF 393 = system: RXF 393
RXF 631 = system: RXF 631
SF-268 = system: SF-268
SF-295 = system: SF-295
SF-539 = system: SF-539
SK-MEL-28 = system: SK-MEL-28
SK-MEL-2 = system: SK-MEL-2
SK-MEL-5 = system: SK-MEL-5
SK-OV-3 = system: SK-OV-3
SN12C = system: SN12C
SNB-19 = system: SNB-19
SNB-75 = system: SNB-75
SNB-78 = system: SNB-78
SR = system: SR
SW-620 = system: SW-620
TK-10 = system: TK-10
U-251 = system: U-251
UACC-257 = system: UACC-257
UACC-62 = system: UACC-62
UO-31 = system: UO-31
HCT-15 = system: HCT-15
HOP-62 = system: HOP-62
KM-20L2 = system: KM-20L2
LOX IMVI = system: LOX IMVI
M14 = system: M14
XF498 = system: XF498
HL-60 = system: HL-60
OVCAR-4 = system: OVCAR-4

Structure (SMILES): c1ccc(NC[Si]23OCCN(CCO2)CCO3)cc1
- GI50 (786-0): > 100 µM (inactive)
- GI50 (A498): > 100 µM (inactive)
- GI50 (A549): > 100 µM (inactive)
- GI50 (ACHN): > 100 µM (inactive)
- GI50 (CAKI-1): > 100 µM (inactive)
- GI50 (CCRF-CEM): > 100 µM (inactive)
- GI50 (COLO 205): > 100 µM (inactive)
- GI50 (DLD-1): > 100 µM (inactive)
- GI50 (DMS-114): > 100 µM (inactive)
- GI50 (DMS-273): > 100 µM (inactive)
- GI50 (EKVX): > 100 µM (inactive)
- GI50 (HCC 2998): > 100 µM (inactive)
- GI50 (HCT-116): > 100 µM (inactive)
- GI50 (HOP-18): > 100 µM (inactive)
- GI50 (HOP-92): > 100 µM (inactive)
- GI50 (HT-29): > 100 µM (inactive)
- GI50 (IGROV-1): > 100 µM (inactive)
- GI50 (K562): > 100 µM (inactive)
- GI50 (KM12): > 100 µM (inactive)
- GI50 (LXFL 529): > 100 µM (inactive)
- GI50 (M19-MEL): > 100 µM (inactive)
- GI50 (MOLT-4): > 100 µM (inactive)
- GI50 (Malme-3M): > 100 µM (inactive)
- GI50 (NCI-H226): > 100 µM (inactive)
- GI50 (NCI-H23): > 100 µM (inactive)
- GI50 (NCI-H460): > 100 µM (inactive)
- GI50 (NCI-H522): > 100 µM (inactive)
- GI50 (OVCAR-3): > 100 µM (inactive)
- GI50 (OVCAR-5): > 100 µM (inactive)
- GI50 (OVCAR-8): > 100 µM (inactive)
- GI50 (RPMI-8226): > 100 µM (inactive)
- GI50 (RXF 393): > 100 µM (inactive)
- GI50 (RXF 631): > 100 µM (inactive)
- GI50 (SF-268): > 100 µM (inactive)
- GI50 (SF-295): > 100 µM (inactive)
- GI50 (SF-539): > 100 µM (inactive)
- GI50 (SK-MEL-28): > 100 µM (inactive)
- GI50 (SK-MEL-2): > 100 µM (inactive)
- GI50 (SK-MEL-5): > 100 µM (inactive)
- GI50 (SK-OV-3): > 100 µM (inactive)
- GI50 (SN12C): > 100 µM (inactive)
- GI50 (SNB-19): > 100 µM (inactive)
- GI50 (SNB-75): > 100 µM (inactive)
- GI50 (SNB-78): > 100 µM (inactive)
- GI50 (SR): > 100 µM (inactive)
- GI50 (SW-620): > 100 µM (inactive)
- GI50 (TK-10): > 100 µM (inactive)
- GI50 (U-251): > 100 µM (inactive)
- GI50 (UACC-257): > 100 µM (inactive)
- GI50 (UACC-62): > 100 µM (inactive)
- GI50 (UO-31): > 100 µM (inactive)

Structure (SMILES): O=C1OCc2c1cc1ccc(O)c(OC3OC(CO)C(O)C(O)C3O)c1c2-c1ccc2c(c1)OCO2 (stereo not given)
- GI50 (786-0): > 100 µM (inactive)
- GI50 (A498): > 100 µM (inactive)
- GI50 (A549): > 100 µM (inactive)
- GI50 (ACHN): 72.1 µM (inactive)
- GI50 (CAKI-1): 87.3 µM (inactive)
- GI50 (COLO 205): > 100 µM (inactive)
- GI50 (DMS-114): 47.5 µM (inactive)
- GI50 (DMS-273): 94.6 µM (inactive)
- GI50 (EKVX): > 100 µM (inactive)
- GI50 (HCT-15): 46.2 µM
- GI50 (HOP-62): > 100 µM (inactive)
- GI50 (HT-29): 47.2 µM (inactive)
- GI50 (IGROV-1): > 100 µM (inactive)
- GI50 (KM-20L2): > 100 µM (inactive)
- GI50 (LOX IMVI): 86.7 µM (inactive)
- GI50 (LXFL 529): 68.1 µM (inactive)
- GI50 (M14): 87.3 µM (inactive)
- GI50 (Malme-3M): > 100 µM (inactive)
- GI50 (NCI-H460): > 100 µM (inactive)
- GI50 (OVCAR-5): > 100 µM (inactive)
- GI50 (OVCAR-8): 94 µM (inactive)
- GI50 (RXF 393): 59.4 µM (inactive)
- GI50 (RXF 631): > 100 µM (inactive)
- GI50 (SF-295): > 100 µM (inactive)
- GI50 (SF-539): > 100 µM (inactive)
- GI50 (SK-MEL-28): 67.8 µM (inactive)
- GI50 (SK-OV-3): > 100 µM (inactive)
- GI50 (SN12C): 89.3 µM (inactive)
- GI50 (SNB-78): 89.3 µM (inactive)
- GI50 (SW-620): > 100 µM (inactive)
- GI50 (TK-10): > 100 µM (inactive)
- GI50 (U-251): > 100 µM (inactive)
- GI50 (UACC-62): 76.9 µM (inactive)
- GI50 (XF498): 62.7 µM (inactive)

Structure (SMILES): CC1=Nc2ccccc2C12C(c1ccccc1)C(c1ccccc1)C(=O)N1c3ccccc3CC12 (stereo not given)
- GI50 (786-0): > 100 µM (inactive)
- GI50 (A498): > 100 µM (inactive)
- GI50 (A549): > 100 µM (inactive)
- GI50 (ACHN): > 100 µM (inactive)
- GI50 (CAKI-1): > 100 µM (inactive)
- GI50 (COLO 205): > 100 µM (inactive)
- GI50 (DLD-1): > 100 µM (inactive)
- GI50 (DMS-114): > 100 µM (inactive)
- GI50 (DMS-273): > 100 µM (inactive)
- GI50 (EKVX): > 100 µM (inactive)
- GI50 (HCC 2998): > 100 µM (inactive)
- GI50 (HCT-116): > 100 µM (inactive)
- GI50 (HCT-15): > 100 µM
- GI50 (HL-60): > 100 µM (inactive)
- GI50 (HOP-62): > 100 µM (inactive)
- GI50 (HOP-92): > 100 µM (inactive)
- GI50 (HT-29): > 100 µM (inactive)
- GI50 (IGROV-1): > 100 µM (inactive)
- GI50 (K562): > 100 µM (inactive)
- GI50 (KM-20L2): > 100 µM (inactive)
- GI50 (KM12): > 100 µM (inactive)
- GI50 (LOX IMVI): > 100 µM (inactive)
- GI50 (LXFL 529): > 100 µM (inactive)
- GI50 (M14): > 100 µM (inactive)
- GI50 (MOLT-4): > 100 µM (inactive)
- GI50 (Malme-3M): > 100 µM (inactive)
- GI50 (NCI-H226): > 100 µM (inactive)
- GI50 (NCI-H23): > 100 µM (inactive)
- GI50 (NCI-H460): > 100 µM (inactive)
- GI50 (NCI-H522): > 100 µM (inactive)
- GI50 (OVCAR-3): > 100 µM (inactive)
- GI50 (OVCAR-4): 19.9 µM (inactive)
- GI50 (OVCAR-5): > 100 µM (inactive)
- GI50 (OVCAR-8): > 100 µM (inactive)
- GI50 (RPMI-8226): > 100 µM (inactive)
- GI50 (RXF 393): > 100 µM (inactive)
- GI50 (RXF 631): > 100 µM (inactive)
- GI50 (SF-295): > 100 µM (inactive)
- GI50 (SF-539): > 100 µM (inactive)
- GI50 (SK-MEL-28): > 100 µM (inactive)
- GI50 (SK-MEL-2): > 100 µM (inactive)
- GI50 (SK-MEL-5): > 100 µM (inactive)
- GI50 (SK-OV-3): > 100 µM (inactive)
- GI50 (SN12C): > 100 µM (inactive)
- GI50 (SNB-19): > 100 µM (inactive)
- GI50 (SNB-75): 73.1 µM (inactive)
- GI50 (SNB-78): > 100 µM (inactive)
- GI50 (SR): > 100 µM (inactive)
- GI50 (SW-620): > 100 µM (inactive)
- GI50 (TK-10): > 100 µM (inactive)
- GI50 (U-251): > 100 µM (inactive)
- GI50 (UACC-257): > 100 µM (inactive)
- GI50 (UACC-62): > 100 µM (inactive)
- GI50 (UO-31): > 100 µM (inactive)
- GI50 (XF498): 11.9 µM (inactive)
